Results on seven compounds are retold here after PMC7425579 (Journal of medicinal chemistry, 2020).

For one assay, the system named is HIV-1LAI. In words: Antiviral assay in MT-2 human T-lymphoid cells exposed to HIV-1LAI. It counts as cell-based. The note with it: MT-2 cells.
The test system of assay [1] is highly drug-resistant HIV-1 variants. In words: Antiviral activity against the panel of highly drug-resistant HIV-1 variants. It counts as cell-based. Conditions: for ability to block replication of highly PI-resistant HIV-1 variants (in words): panel of Table 3.
The target in a further assay is HIV-1 protease (Human immunodeficiency virus type 1 group M subtype B, UniProt P04585). In words: HIV-1 protease inhibition assay. It counts as biochemical. Conditions: compared to 5b with the enantiomeric P2 ligand.
The test system of a further assay is HIV-1ATV-5 μM. It counts as cell-based. Conditions: MT-4 cells.
Another assay concerns HIV-1DRV^RP30. It counts as cell-based. The note with it: HIV-1DRV^RP30, MT-4 cells.

`CC(C)CN(C[C@@H](O)[C@H](Cc1ccccc1)NC(=O)O[C@H]1C[C@H]2CO[C@H]3OC1C[C@@H]23)S(=O)(=O)c1ccc2nc(NC(C)C)oc2c1` [inhibitor 5c, (1S,3aR,5S,7aS)-Octahydro-1,6-epoxyisobenzofuran-5-yl((2S,3R)-3-Hydroxy-4-((N-isobutyl-2-(isopropylamino)benzo-[d]oxazole)-6-sulfonamido)-1-phenylbutan-2-yl)carbamate]: the “fold improvement of antiviral activity compared to inhibitor 4c” value in the assay with HIV-1LAI is recorded as “over 5 fold”. In assay [1], the “ability to block replication of highly PI-resistant HIV-1 variants (in words)” value was “failed to block replication”. For the compound `CC(C)CN(C[C@@H](O)[C@H](Cc1ccccc1)NC(=O)OC1C[C@@H]2CO[C@@H]3OC1C[C@H]23)S(=O)(=O)c1ccc2nc(NC3CC3)sc2c1` (stereo partly drawn) [inhibitor 4b, (1R,3aS,7aR)-Octahydro-1,6-epoxyisobenzofuran-5-yl((2S,3R)-4-((2-(Cyclopropylamino)-N-isobutylbenzo[d]-thiazole)-6-sulfonamido)-3-hydroxy-1-phenylbutan-2-yl)-carbamate], at HIV-1 protease, the “fold better enzyme Ki than inhibitor 5b” value is reported as approximately 10 fold. On to `CC(C)CN(C[C@@H](O)[C@H](Cc1cc(F)cc(F)c1)NC(=O)O[C@H]1C[C@H]2CO[C@H]3OC1C[C@@H]23)S(=O)(=O)c1ccc2nc(NC3CC3)sc2c1` [inhibitor 5d, (1S,3aR,5S,7aS)-Octahydro-1,6-epoxyisobenzofuran-5-yl((2S,3R)-4-((2-(Cyclopropylamino)-N-isobutylbenzo[d]-thiazole)-6-sulfonamido)-1-(3,5-difluorophenyl)-3-hydroxy-butan-2-yl)carbamate], for which, in the assay with HIV-1LAI, the “fold reduction of antiviral activity compared to inhibitor 4d” value is approximately 25 fold. On to `CC(C)CN(C[C@@H](O)[C@H](Cc1ccc(F)cc1)NC(=O)O[C@H]1C[C@H]2CO[C@H]3OC1C[C@@H]23)S(=O)(=O)c1ccc2nc(NC3CC3)sc2c1` [inhibitor 5f, (1S,3aR,5S,7aS)-Octahydro-1,6-epoxyisobenzofuran-5-yl((2S,3R)-4-((2-(Cyclopropylamino)-N-isobutylbenzo[d]-thiazole)-6-sulfonamido)-1-(4-fluorophenyl)-3-hydroxybutan-2-yl)carbamate], for which the “fold improvement of antiviral activity compared to inhibitor 5b” value in the assay with HIV-1LAI was “over 4 fold”.

For `CC(C)CN(C[C@@H](O)[C@H](Cc1ccc(F)cc1)NC(=O)OC1C[C@@H]2CO[C@@H]3OC1C[C@H]23)S(=O)(=O)c1ccc2nc(NC3CC3)sc2c1` (stereo partly drawn) [inhibitor 4f, (1R,3aS,7aR)-Octahydro-1,6-epoxyisobenzofuran-5-yl((2S,3R)-4-((2-(Cyclopropylamino)-N-isobutylbenzo[d]-thiazole)-6-sulfonamido)-1-(4-fluorophenyl)-3-hydroxybutan-2-yl)carbamate], in the assay with HIV-1LAI, the “fold improvement of antiviral activity compared to inhibitor 4b” value was “over 7 fold”. On to `COC(=O)N[C@H](C(=O)N[C@@H](Cc1ccccc1)[C@@H](O)CN(Cc1ccc(-c2ccccn2)cc1)NC(=O)[C@@H](NC(=O)OC)C(C)(C)C)C(C)(C)C` [ATV, atazanavir], for which the “fold-change in IC50 compared to wild-type HIV-1NL4-3” value with HIV-1ATV-5 μM and in the assay with HIV-1DRV^RP30 was more than 250 fold throughout. Further, the “ability to block replication of highly PI-resistant HIV-1 variants (in words)” value in assay [1] is on record as “unable to suppress the replication”. As for `CC(C)CN(C[C@@H](O)[C@H](Cc1cc(F)cc(F)c1)NC(=O)OC1C[C@@H]2CO[C@@H]3OC1C[C@H]23)S(=O)(=O)c1ccc2nc(NC3CC3)sc2c1` (stereo partly drawn) [inhibitor 4d, (1R,3aS,7aR)-Octahydro-1,6-epoxyisobenzofuran-5-yl((2S,3R)-4-((2-(Cyclopropylamino)-N-isobutylbenzo[d]-thiazole)-6-sulfonamido)-1-(3,5-difluorophenyl)-3-hydroxybutan-2-yl)carbamate], in assay [1] (Human immunodeficiency virus 1, read-out: antiviral activity against highly drug-resistant HIV-1 variants), the IC50 lay in the range of 0.21 to 4.5 nM.
